Here are results for three compounds from paper PMC4680857, “Rat and human STINGs profile similarly towards anticancer/antiviral compounds” (Scientific Reports, 2015).

Positions count from the first letter of the chain named. Read-outs that look alike come from different tables or passages of the source.

Assay [1] addresses T1, rSTING CTD (residues 155–341) (Rattus norvegicus, UniProt F1M391).
T1 construct: rSTING (residues 155–341); His tag (TEV protease-cleavable) (N); made in house; host or cells: Escherichia coli BL21 (DE3)
T1 sequence (F1M391 155-341): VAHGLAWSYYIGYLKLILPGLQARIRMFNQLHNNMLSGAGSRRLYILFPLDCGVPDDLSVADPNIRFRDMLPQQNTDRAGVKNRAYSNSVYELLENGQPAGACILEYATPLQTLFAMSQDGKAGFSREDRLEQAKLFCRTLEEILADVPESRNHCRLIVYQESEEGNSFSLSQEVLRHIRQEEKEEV
The assay is described as follows: ITC binding to rSTING-CTD.

For assay [2], the system named is hSTING haplotypes with residue 230 mutations. Put plainly: IFN-β luciferase assay, residue 230 mutations in hSTING haplotypes. The class given is cell-based, human. The following applies: 2′3′-cGAMP stimulation (Fig. 5c).
For assay [3], the target named is T2, hSTING CTD (residues 155–341) (Homo sapiens, UniProt Q86WV6, G230A/H232R).
T2 construct: hSTING (residues 155–341); His tag (TEV protease-cleavable) (N); made in house; host or cells: Escherichia coli BL21 (DE3)
The assay is described as follows: ITC binding to hSTING-CTD.

The next assay deals with T3, rSTING T230I (Rattus norvegicus, UniProt F1M391, T230I).
T3 construct: rSTING (residues 155–341); His tag (TEV protease-cleavable) (N); made in house; host or cells: Escherichia coli BL21 (DE3)
T3 sequence (F1M391 155-341 T230I): T1 sequence (F1M391 155-341) with T76I
The assay is described as follows: ITC binding to rSTING T230I.

The next assay addresses T4, rSTING T230L (Rattus norvegicus, UniProt F1M391, T230L).
T4 construct: rSTING (residues 155–341); His tag (TEV protease-cleavable) (N); made in house; host or cells: Escherichia coli BL21 (DE3)
T4 sequence (F1M391 155-341 T230L): T1 sequence (F1M391 155-341) with T76L
The assay is described as follows: ITC binding to rSTING T230L.

Assay [4] has as its system hSTING with A230 replaced by Ile or Leu. The assay is described as follows: ITC binding to hSTING mutants (Fig. S6). Also noted: species or system human.
Another assay has as its system hSTING G230I variant. Also noted: method as in Gao et al. [35]. To be noted: ref Gao et al. [35]; cited from earlier work.

Broadly, the Kd is a measure of binding affinity in units of concentration. Low readings indicate tighter binding, high ones weaker binding.

T2 sequence (Q86WV6 155-341 G230A/H232R): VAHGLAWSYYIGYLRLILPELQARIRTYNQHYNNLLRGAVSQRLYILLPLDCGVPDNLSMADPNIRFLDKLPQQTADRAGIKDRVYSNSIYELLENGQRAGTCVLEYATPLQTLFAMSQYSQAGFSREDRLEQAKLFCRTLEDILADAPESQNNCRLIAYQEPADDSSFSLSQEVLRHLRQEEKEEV

The compound `Nc1nc2c(ncn2[C@@H]2O[C@@H]3COP(=O)(O)O[C@H]4[C@@H](O)[C@H](n5cnc6c(N)ncnc65)O[C@@H]4COP(=O)(O)O[C@H]3[C@H]2O)c(=O)[nH]1` [3′3′-cGAMP] had a Kd in assay [1] (ITC, 25 °C, WT rSTING-CTD (T230)) of 550 ± 110 nM. Moreover, the “binding affinity (in words)” value in assay [1] (ITC, rSTING CTD) is listed as “high binding affinities”.

As to `Nc1nc2c(ncn2[C@@H]2O[C@@H]3COP(=O)(O)O[C@H]4[C@@H](O)[C@H](n5cnc6c(N)ncnc65)O[C@@H]4COP(=O)(O)O[C@@H]2[C@@H]3O)c(=O)[nH]1` [2′3′-cGAMP, cyclic GMP-AMP with 2′5′ and 3′5′ phosphodiester linkage], in assay [1], the Kd was found to be 120 ± 30 nM and the “binding affinity (in words)” value is recorded as “high binding affinities”. Moreover, the “cGAMP-induced IFN-β production, differences between residue 230 mutations” value in assay [2] is given as “no differences”.

Consider `Cc1ccc2c(=O)c3cccc(CC(=O)O)c3oc2c1C` [DMXAA, 5,6-Dimethylxanthenone 4-acetic acid], for which the “binding affinity (in words)” value in assay [3] is recorded as “none or only weak affinity”; in assay [1] (ITC, rSTING CTD), “none or only weak affinity”. Moreover, the ΔH in assay [1] (ITC, rSTING T230(WT)) is -2.77 ± 0.09 kcal/mol; on rSTING T230I (rSTING T230I) it was -3.86 ± 0.10 kcal/mol; at rSTING T230L, -2.31 ± 0.07 kcal/mol. Besides, the ΔS is listed as 11.7 cal/mol/deg in assay [1] (ITC, rSTING T230(WT)); 16.0 cal/mol/deg at rSTING T230I (rSTING T230I); 16.6 cal/mol/deg on rSTING T230L. The “binding affinity greater than that for WT rSTING” value on rSTING T230I (rSTING T230I vs WT rSTING) came out at 50 fold. Further, the “binding by ITC (in words)” value in assay [4] is “detectable binding”. For the same compound, in the assay on hSTING G230I variant, the “response of STING variant to compound” value is on record as “can respond”.
